Test results taken from patent publication US5804603A, “Synthesized β-adrenergic blockers derivatives of guaiacol” (National Science Council, priority 1995, dated 1998).
Read-outs that look alike come from different tables or passages of the source.

How the values were obtained:
[1] = tested on: heart rate and blood pressure; experiment: Heart rate and blood pressure changes of rats induced by guaiacoxypropanolamines; assay type: in vivo; conditions: 1.0 mg/kg iv, means ± SE (n = 8)
[2] = target: T1, Isolated Guinea Pig Atria (Cavia porcellus, UniProt H0W3H1); experiment: pA2 on isolated guinea pig atria; assay type: cell-based; conditions: for pA2, positive chronotropic / pA2, positive inotropic / Kb: isolated guinea pig atria; for Potency ratio (PR), positive chronotropic / Potency ratio (PR), positive inotropic: with respect to propranolol
T1 construct: Isolated Guinea Pig Atria; from tissue; host or cells: guinea pig atria (isolated organ)
Excerpt: The determination of the pA2 is made from experiments in which a fixed concentration of the antagonist is used along with graded concentrations of an agonist acting on the same receptor. The presence of the antagonist shifts the agonist dose-response curve to the right.

[3] = read-out: pA2, positive chronotropic (converted)
[4] = read-out: pA2, positive inotropic (converted)

T1 sequence (H0W3H1 1-470): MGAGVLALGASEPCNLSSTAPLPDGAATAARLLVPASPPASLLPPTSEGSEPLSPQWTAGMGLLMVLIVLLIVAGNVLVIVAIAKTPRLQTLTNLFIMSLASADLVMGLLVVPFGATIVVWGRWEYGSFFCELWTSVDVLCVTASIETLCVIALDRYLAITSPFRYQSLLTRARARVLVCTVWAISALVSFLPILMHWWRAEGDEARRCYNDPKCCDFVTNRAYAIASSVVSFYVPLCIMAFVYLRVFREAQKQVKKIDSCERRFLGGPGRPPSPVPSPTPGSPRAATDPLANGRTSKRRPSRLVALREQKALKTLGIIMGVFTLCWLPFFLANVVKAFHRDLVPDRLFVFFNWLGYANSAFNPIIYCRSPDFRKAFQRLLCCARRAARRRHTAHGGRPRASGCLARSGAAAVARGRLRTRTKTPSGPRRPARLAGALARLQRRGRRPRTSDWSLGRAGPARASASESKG

Row | Molecule | change in BP ([1]; 5 min after dosing) [mmHg] | change in HR ([1]; 5 min after dosing) [beats/min] | change in BP ([1]; 10 min after dosing) [mmHg] | change in HR ([1]; 10 min after dosing) [beats/min] | change in BP ([1]; 15 min after dosing) [mmHg] | change in HR ([1]; 15 min after dosing) [beats/min] | change in BP ([1]; 30 min after dosing) [mmHg] | change in HR ([1]; 30 min after dosing) [beats/min] | change in BP ([1]; 60 min after dosing) [mmHg] | change in HR ([1]; 60 min after dosing) [beats/min] | pA2, positive chronotropic [2] | pA2, positive inotropic [2] | Potency ratio (PR), positive chronotropic [2] | Potency ratio (PR), positive inotropic [2] | Kb [2, 3] [nM] | Kb [2, 4] [nM]
1 | CCCCCCCCC(=O)NCc1ccc(OCC(O)CNCCC)c(OC)c1 (centres unmarked) [NH-n-C3 H7, N-[4-o-(2-hydroxy-3-(n-propylamino)propoxy)-3-methoxybenzyl]-nonamide] | -1.78 ± 1.71 | -42.56 ± 7.65 | -2.56 ± 1.47 | -35.33 ± 6.05 | -3.11 ± 1.81 | -32.00 ± 5.25 | -2.44 ± 1.66 | -14.11 ± 5.16 | -0.56 ± 0.50 | -6.89 ± 4.32 | 6.79 ± 0.01 | 7.75 ± 0.07 | 0.05 | 0.21 |  | 
2 | CCCCCCCCC(=O)NCc1ccc(OCC(O)CNCCCC)c(OC)c1 (centres unmarked) [NH-n-C4 H9, N-[4-o-(2-hydroxy-3-(n-butylamino)propoxy)-3-methoxybenzyl]-nonamide] | -0.22 ± 1.74 | -40.00 ± 3.74 | -1.22 ± 1.59 | -33.78 ± 5.08 | -1.22 ± 1.77 | -26.22 ± 6.56 | 0.11 ± 1.54 | -15.33 ± 5.24 | 3.33 ± 2.82 | -3.67 ± 2.55 |  |  | 0.13 | 0.07 | 58.9 | 53.7
3 | CCCCCCCCC(=O)NCc1ccc(OCC(O)CNCCCCC)c(OC)c1 (centres unmarked) [NH-n-C5 H11, N-[4-o-(2-hydroxy-3-(n-pentylamino)propoxy)-3-methoxybenzyl]-nonamide] | -4.67 ± 1.71 | -25.11 ± 5.81 | -1.67 ± 1.87 | -23.33 ± 2.41 | -0.88 ± 3.00 | -10.22 ± 2.38 | 3.67 ± 2.66 | -5.78 ± 7.89 | 2.44 ± 1.96 | -6.56 ± 4.38 | 7.19 ± 0.02 | 7.55 ± 0.04 | 0.12 | 0.14 |  | 
4 | CCCCCCCCC(=O)NCc1ccc(OCC(O)CNCCCCCC)c(OC)c1 (centres unmarked) [NH-n-C6 H13, N-[4-o-(2-hydroxy-3-(n-hexylamino)propoxy)-3-methoxybenzyl]-nonamide] | -2.22 ± 1.42 | -35.56 ± 8.71 | -2.89 ± 1.61 | -24.11 ± 3.31 | -4.44 ± 2.93 | -14.89 ± 7.10 | -2.11 ± 2.77 | -12.67 ± 6.59 | 1.89 ± 1.13 | -8.00 ± 5.64 |  |  | 0.01 | 0.06 | 933 | 66.1
5 | CCCCCCCCC(=O)NCc1ccc(OCC(O)CNC(C)CC)c(OC)c1 (centres unmarked) [NH-s-C4 H9, N-[4-o-(2-hydroxy-3-(sec-butylamino)propoxy)-3-methoxybenzyl]-nonamide] | 4.11 ± 2.76 | -38.56 ± 11.30 | 4.89 ± 3.37 | -35.44 ± 12.46 | 3.33 ± 3.74 | -32.33 ± 11.96 | -0.88 ± 3.11 | -25.11 ± 9.49 | 1.22 ± 1.47 | -9.56 ± 7.03 |  |  | 0.07 | 0.17 | 120 | 22.4
6 | CCCCCCCCC(=O)NCc1ccc(OCC(O)CNC(C)(C)C)c(OC)c1 (centres unmarked) [NH-t-C4 H9, N-[4-o-(2-hydroxy-3-(tert-butylamino)propoxy)-3-methoxybenzyl]-nonamide] | 3.13 ± 5.66 | -45.00 ± 4.20 | 3.38 ± 5.08 | -37.75 ± 4.44 | 2.38 ± 5.41 | -29.50 ± 5.31 | 1.25 ± 5.45 | -24.88 ± 8.47 | 4.63 ± 3.51 | -18.50 ± 5.13 |  |  | 0.19 | 0.24 | 39.8 | 15.8
7 | CCCCCCCCC(=O)NCc1ccc(OCC(O)CNCC)c(OC)c1 (centres unmarked) [NHC2 H5, N-[4-o-(2-hydroxy-3-(ethylamino)propoxy)-3-methoxybenzyl]-nonamide] | 7.44 ± 3.16 | -38.33 ± 5.94 | 2.56 ± 2.56 | -32.22 ± 5.36 | 1.11 ± 1.78 | -28.00 ± 7.02 | -2.44 ± 3.05 | -21.11 ± 8.75 | 1.88 ± 1.62 | 2.56 ± 11.66 | 6.93 ± 0.09 | 7.27 ± 0.09 | 0.07 | 0.07 |  | 
8 | C=CCNCC(O)COc1ccc(CNC(=O)CCCCCCCC)cc1OC (centres unmarked) [NHC3 H5, N-[4-0-(2-hydroxy-3-(allylamino)propoxy)-3-methoxybenzyl]-nonamide] | -1.56 ± 2.03 | -36.78 ± 11.25 | -2.67 ± 1.96 | -28.22 ± 9.00 | -1.89 ± 2.04 | -19.89 ± 9.26 | -1.11 ± 2.62 | -5.00 ± 8.72 | 4.78 ± 4.96 | -7.56 ± 4.14 |  |  | 0.08 | 0.15 | 93.3 | 25.1
9 | CCCCCCCCC(=O)NCc1ccc(OCC(O)CNC)c(OC)c1 (centres unmarked) [NHCH3, N-[4-o-(2-hydroxy-3-(methylamino)propoxy)-3-methoxybenzyl]-nonamide] | -1.11 ± 2.31 | -34.56 ± 6.79 | -0.22 ± 2.10 | -17.33 ± 5.31 | -0.56 ± 1.65 | -12.22 ± 4.33 | 1.89 ± 2.14 | 14.56 ± 7.73 | 0.78 ± 1.37 | 4.78 ± 4.37 |  |  | 0.03 | 0.05 | 295 | 74.1
10 | N-[4-0-(2-hydroxy-3-(3-aminopentylamino)propoxy)-3-methoxybenzyl-]-nonamide [NHC5 H11] | -2.78 ± 2.33 | -28.11 ± 9.34 | -2.56 ± 1.42 | -28.89 ± 6.30 | -3.22 ± 1.78 | -22.78 ± 5.04 | -1.33 ± 1.38 | -2.22 ± 7.28 | 0.67 ± 0.47 | -3.33 ± 5.69 | 7.25 ± 0.10 | 7.26 ± 0.08 | 0.14 | 0.07 |  | 
